Several values for one entry are separate records, joined by “and”; a condition that tells them apart may be missing. Equal values may be shown once.
Columns and labels:
[1] = tested on: CHO cells expressing huTNFR-Fc; experiment: Cell concentration and viability (hemacytometer, trypan blue dye exclusion) of cultures expressing huTNFR-Fc with inducing agents; type: cell-based, Chinese Hamster; settings: day 5, 31° C.
Procedure: (§1) A second experiment was performed to test the effects of sodium orthovanadate on specific production of the recombinant polypeptide huTNFR-Fc, expressed from cells when compared to the same cells grown without vanadate. Flasks were inoculated at 2×10^6 cells/ml and were either grown without additional compounds or with sodium butyrate at 0.5 mM or sodium butyrate with sodium orthovanadate at 20 μM. Flasks were set up in an incubator at 31° C. Measurements for cell concentration and viability were taken using a hemacytometer and the trypan blue dye exclusion method and the results are shown in Table 2. Production of huTNFR-Fc was measured by standard ELISA.

[2] = tested on: CHO cells expressing huTNFR-Fc; experiment: Production of huTNFR-Fc measured by standard ELISA; type: cell-based, Chinese Hamster; settings: NaButyrate 0.5 mM, culture without inducing agent normalized to 100%
Procedure: as §1

[3] = tested on: Recombinant CHO Cells; experiment: Effect of vanadate and reduced IGF-1 on recombinant CHO cells; type: cell-based, Chinese Hamster; set-up: cells/ml: scale not given here
Procedure: (§2) Vanadate can also reduce the requirement for growth factors to maintain recombinant cell viability. […] At 5 ng/L with vanadate, IGF-1 is sufficient to maintain the same viability of recombinant polypeptide producing cells as 100 μg/L IGF-1 in the absence of vanadate.

[4] = tested on: Chinese Hamster Ovary (CHO) cell line genetically engineered to produce huTNFR:Fc; experiment: Dose response of vanadate in shake flask cultures (viable cell density, viability); type: cell-based; settings: day 5, shake flask, serum-free medium
Procedure: In this experiment, the effect of adding various concentrations of vanadate was tested in mammalian cell shake flask cultures. A Chinese Hamster Ovary (CHO) cell line that had been genetically engineered to produce huTNFR:Fc (a soluble form of the human tumor necrosis factor alpha receptor extracellular domain fused to an Fc polypeptide from an immunogolublin see in U.S. Pat. No. 5,945,397) was grown in serum-free medium. A dose response analysis was performed to determine an optimal dose for vanadate.

[5] = tested on: recombinant cell culture (expressing huTNFR-Fc); experiment: Bioreactor culture (balanced feed experiment) with reduced IGF-1 plus vanadate, FIG. 1; type: cell-based; settings: 25 µg/L IGF-1 with 20 μM sodium orthovanadate compared to 100 µg/L IGF-1 without vanadate
Procedure: FIG. 1. Addition of sodium orthovanadate to a recombinant cell culture (expressing huTNFR-Fc) reduces the requirement for IGF-1 to maintain viability in a balanced feed experiment. […]
as §2
The results from these experiments show how adding vanadate, in this case orthovanadate, can be applied in mammalian cell culture for a number of purposes. Cell viability is increased in cultures having 20 μM orthovanadate compared to cells grown without orthovanadate over a five day period (FIG. 1). In short, adding vanadate, such as orthovanadate, helps to create a more efficient mammalian cell culture process by reducing cell death, reducing the requirement of growth factors in the cell culture and increasing secreted polypeptide production.

[6] = with sodium orthovanadate (+), IGF-1 5 ng/L
[7] = with sodium orthovanadate (+), IGF-1 100 μg/L
[8] = IGF-1 5 ng/L, without sodium orthovanadate (−)
[9] = IGF-1 100 μg/L, without sodium orthovanadate (−)

In the case of `CCCC(=O)[O-].[Na+]` [NaButyrate, sodium butyrate], the “% Viability” value ([1]; NaButyrate 0.5 mM) was 78%, the “VCD, ×10^6” value ([1]; NaButyrate 0.5 mM) was 5.547 ×10^6 and 5.067 ×10^6 and the “Specific Productivity” value [2] was 161% and 153%. For the same compound, the Titer [2] was 140% and 125%.

With `[Na+].[Na+].[Na+].[O]=[V]([O-])([O-])[O-]` [Vanadate, sodium orthovanadate] the “% Viability” value ([1]; sodium butyrate 0.5 mM with sodium orthovanadate 20 μM (0.02 mM)) was 95%, the “% viable” value [3, 6] was 73% and the cells/ml [3, 6] was 4.916 cells/ml. For the same compound, the “% viable” value [3, 7] was 90%, the cells/ml [3, 7] was 6.806 cells/ml and the “% Viability” value ([4]; 10 uM vanadate) was 80% and 89%. The “VCD, ×10^6” value ([4]; 10 uM vanadate) was 5.102 ×10^6 and 6.796 ×10^6, the “% Viability” value ([4]; 20 uM vanadate) was 90% and the “VCD, ×10^6” value ([4]; 20 uM vanadate) was 5.8 ×10^6. For the same compound, the “% Viability” value ([4]; 35 uM vanadate) was 87% and 90%, the “VCD, ×10^6” value ([4]; 35 uM vanadate) was 5.142 ×10^6 and 5.184 ×10^6 and the “% Viability” value ([4]; 50 uM vanadate) was 83% and 81%. The “VCD, ×10^6” value ([4]; 50 uM vanadate) was 4.136 ×10^6 and 3.625 ×10^6, the cell viability ([5]; after four days) was “improved” and the cell survival ([5]; after six days) was “markedly more cell survival”.

In the case of “IGF-1: insulin like growth factor (IGF-1), growth factor added to the medium”, the “% viable” value [3, 8] was 58%, the cells/ml [3, 8] was 3.936 cells/ml and the “% viable” value [3, 9] was 74%. It also gave a cells/ml [3, 9] of 5.825 cells/ml.
